Data reported in patent publication US8772488B2 (Shanghai Institute of Pharmaceutical Industry, priority 2009, dated 2014).

What was measured:
[1] = Solubility of acetic acid solvate (0.1N hydrogen chloride aqueous solution); type: physicochemical; conditions: for Solubility (0.1N hydrogen chloride aqueous solution), descriptive term: Chinese Pharmacopoeia 2005 General Notices
Text: Sample Sources: the Same as Example 10
Experimental method: refer to Pharmacopoeia of the People's Republic of China. 2005 ed. Part 2. General Notices.

[2] = Influence factor test (stability under heat, light, high humidity; HPLC purity); type: physicochemical
Method: Experimental method: refer to Pharmacopoeia of the People's Republic of China. 2005 ed. Part 2. Appendix XIX C
HPLC conditions: instrument: Agilent 1100
Chromatographic column: Phenomenex Hyperclone 5μ BDS C18
Mobile phase: acetonitrile: KH2PO4 (10 mM)=70:30
Column temperature: 40° C.

platelet aggregation = conditions: cited from earlier work
[3] = cited from earlier work

| Compound | Solubility (0.1N hydrogen chloride aqueous solution), descriptive term [1] | Purity (HPLC area normalization) tR 6.2 ([2]; 0 day) | Purity (HPLC area normalization) tR 6.2 ([2]; 60° C. for 5 days) | Purity (HPLC area normalization) tR 6.2 ([2]; 60° C. for 10 days) | Purity (HPLC area normalization) tR 6.2 ([2]; RH 92.5% 5 days) | Purity (HPLC area normalization) tR 6.2 ([2]; RH 92.5% 10 days) | Purity (HPLC area normalization) tR 6.2 ([2]; light for 5 days) | Purity (HPLC area normalization) tR 6.2 ([2]; light for 10 days) | Inhibition of platelet aggregation (platelet aggregation) | Water solubility compared to hydrochloride [3] | Solubility compared with prasugrel hydrobromate and hydrochlorate [1] | Stability of crystal A compared with crystal B ([2]; stability test) | Stability compared with X1 and X2 ([2]; under all the conditions of light, 60° C., and RH 92.5%) |
| --- | --- | --- | --- | --- | --- | --- | --- | --- | --- | --- | --- | --- | --- |
| CC(=O)Oc1cc2c(s1)CCN(C(C(=O)C1CC1)c1ccccc1F)C2 (stereo not drawn) [Example X1] | slightly soluble | 99.08 | 98.89 | 98.29 | 98.39 | 98.20 | 98.49 | 98.20 | good activity |  |  |  |  |
| Br.CC(=O)Oc1cc2c(s1)CCN(C(C(=O)C1CC1)c1ccccc1F)C2 (stereo not drawn) [Example X2] | degraded | 99.83 | 99.39 | 99.01 | 96.62 | 96.12 | 99.40 | 98.83 |  | improved |  |  |  |
| maleate |  |  |  |  |  |  |  |  | good activity |  |  |  |  |
| CC(=O)Oc1cc2c(s1)CCN(C(C(=O)C1CC1)c1ccccc1F)C2 (stereo not drawn) [Example X3, 2-acetoxy-5-(α-cyclopropylcarbonyl-2fluorobenzyl)-4,5,6,7-tetrahydrothieno[3,2-c]pyridine hydrobromate] | easily soluble | 99.84 | 99.72 | 99.46 | 99.65 | 99.50 | 99.56 | 99.57 |  |  | better solubility | better than crystal B | more stable |
